Measurements from article PMC4790851, “Iminosugars Inhibit Dengue Virus Production via Inhibition of ER Alpha-Glucosidases—Not Glycolipid Processing Enzymes” (PLoS Neglected Tropical Diseases, 2016).

Columns and labels:
[1] = test system: MDMΦs; test: Cytotoxicity, MTS cell proliferation assay; type: cell-based, human
Method: Cytotoxicity of compounds was assessed by a cell proliferation assay for metabolic activity using a CellTiter 96 AQueous One Solution Cell Proliferation Assay (Promega) as per the manufacturer’s instructions. Briefly, 20 μl of a solution containing tetrazolium compound [3-(4,5-[…])-5-(3-carboxymethoxyphenyl)-2-(4-sulfophenyl)-2H-tetrazolium; MTS] and electron coupling reagent (phenazine ethosulfate) was added to cells covered or suspended in 100 μl of culture medium in a 96-well plate. Samples were incubated for approximately 4 hours (37°C, 5% CO2), and the absorbance at 490 nm (A490) was measured on a SpectraMax M5 microplate reader (Molecular Devices).

[2] = target: T1, Mouse ER α-glucosidase II (Mus musculus, UniProt Q8BHN3); test: In vitro enzyme inhibition, 4MUG hydrolysis; type: biochemical; conditions: concentration required to inhibit the enzyme to 50% activity
T1 sequence (Q8BHN3 33-944): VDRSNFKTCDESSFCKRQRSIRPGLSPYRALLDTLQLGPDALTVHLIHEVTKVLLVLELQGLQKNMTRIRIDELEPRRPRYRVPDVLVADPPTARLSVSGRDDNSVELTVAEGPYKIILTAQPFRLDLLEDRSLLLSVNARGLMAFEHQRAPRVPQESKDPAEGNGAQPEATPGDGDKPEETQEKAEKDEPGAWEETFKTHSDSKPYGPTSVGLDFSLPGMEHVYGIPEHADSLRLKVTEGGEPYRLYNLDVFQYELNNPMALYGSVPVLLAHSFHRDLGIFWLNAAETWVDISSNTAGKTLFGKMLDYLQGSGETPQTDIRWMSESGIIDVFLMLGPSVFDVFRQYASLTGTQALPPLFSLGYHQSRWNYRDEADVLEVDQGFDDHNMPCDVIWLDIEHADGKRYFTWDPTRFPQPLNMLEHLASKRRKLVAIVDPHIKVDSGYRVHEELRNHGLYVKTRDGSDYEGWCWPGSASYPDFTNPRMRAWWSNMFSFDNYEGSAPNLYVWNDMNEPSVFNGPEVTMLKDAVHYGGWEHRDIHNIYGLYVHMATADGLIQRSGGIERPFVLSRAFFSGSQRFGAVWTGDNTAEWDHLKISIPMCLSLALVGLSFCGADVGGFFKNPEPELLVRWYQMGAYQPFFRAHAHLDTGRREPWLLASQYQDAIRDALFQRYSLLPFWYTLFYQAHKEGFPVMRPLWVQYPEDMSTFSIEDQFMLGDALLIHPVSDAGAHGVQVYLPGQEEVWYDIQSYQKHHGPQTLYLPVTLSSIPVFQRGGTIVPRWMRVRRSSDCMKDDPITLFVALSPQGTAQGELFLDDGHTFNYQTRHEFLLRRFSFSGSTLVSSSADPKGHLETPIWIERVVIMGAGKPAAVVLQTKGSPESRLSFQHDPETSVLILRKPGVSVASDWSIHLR
T1 sequence (O08795 15-521 partner): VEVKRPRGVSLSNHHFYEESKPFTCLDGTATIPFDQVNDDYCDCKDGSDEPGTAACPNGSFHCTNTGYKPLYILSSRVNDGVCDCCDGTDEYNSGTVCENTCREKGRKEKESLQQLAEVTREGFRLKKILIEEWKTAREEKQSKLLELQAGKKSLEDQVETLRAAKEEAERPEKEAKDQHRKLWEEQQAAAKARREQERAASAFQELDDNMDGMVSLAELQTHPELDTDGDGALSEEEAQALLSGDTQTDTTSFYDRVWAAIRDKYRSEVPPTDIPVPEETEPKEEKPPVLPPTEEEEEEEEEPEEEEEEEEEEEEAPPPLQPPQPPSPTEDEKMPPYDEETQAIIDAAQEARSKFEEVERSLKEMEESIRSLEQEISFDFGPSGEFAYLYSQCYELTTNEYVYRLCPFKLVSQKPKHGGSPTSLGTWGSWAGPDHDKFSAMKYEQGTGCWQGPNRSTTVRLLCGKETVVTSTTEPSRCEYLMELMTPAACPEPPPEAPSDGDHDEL
Method: Recombinant Mus musculus ER alpha-glucosidase II inhibition was measured by incubating 20 nM enzyme with various concentrations of inhibitors in 100 mM potassium phosphate pH 7.2 at 37 °C for 5 minutes. Activity was measured by addition of 0.25 mM 4-methylumbelliferyl α-D-glucopyranoside (4MUG) (Sigma Aldrich) in black, non-binding surface-treated microplates (Corning). Fluorescence upon hydrolysis of the 4MUG was measured at λex of 355 nm and λem of 460 nm in a M5 multi-mode plate reader (Molecular Devices) at 37 °C, measuring fluorescence every minute for a total of 30 minutes. The initial velocity was fit in the linear range of measurements, and activity was normalized to the uninhibited control in order to plot activity against the inhibitor concentration. A sigmoidal, four-parameter function with a variable slope was used to determine the EC50 values in Prism (GraphPad).

[3] = target: T2, Rat intestinal isomaltase (Rattus norvegicus, UniProt P23739); test: In vitro enzyme inhibition, glucose release from disaccharide; type: biochemical; conditions: concentration required to inhibit the enzyme to 50% activity; read-out: IC50
T2 construct: from tissue; host or cells: rat intestine
T2 sequence (P23739 whole entry): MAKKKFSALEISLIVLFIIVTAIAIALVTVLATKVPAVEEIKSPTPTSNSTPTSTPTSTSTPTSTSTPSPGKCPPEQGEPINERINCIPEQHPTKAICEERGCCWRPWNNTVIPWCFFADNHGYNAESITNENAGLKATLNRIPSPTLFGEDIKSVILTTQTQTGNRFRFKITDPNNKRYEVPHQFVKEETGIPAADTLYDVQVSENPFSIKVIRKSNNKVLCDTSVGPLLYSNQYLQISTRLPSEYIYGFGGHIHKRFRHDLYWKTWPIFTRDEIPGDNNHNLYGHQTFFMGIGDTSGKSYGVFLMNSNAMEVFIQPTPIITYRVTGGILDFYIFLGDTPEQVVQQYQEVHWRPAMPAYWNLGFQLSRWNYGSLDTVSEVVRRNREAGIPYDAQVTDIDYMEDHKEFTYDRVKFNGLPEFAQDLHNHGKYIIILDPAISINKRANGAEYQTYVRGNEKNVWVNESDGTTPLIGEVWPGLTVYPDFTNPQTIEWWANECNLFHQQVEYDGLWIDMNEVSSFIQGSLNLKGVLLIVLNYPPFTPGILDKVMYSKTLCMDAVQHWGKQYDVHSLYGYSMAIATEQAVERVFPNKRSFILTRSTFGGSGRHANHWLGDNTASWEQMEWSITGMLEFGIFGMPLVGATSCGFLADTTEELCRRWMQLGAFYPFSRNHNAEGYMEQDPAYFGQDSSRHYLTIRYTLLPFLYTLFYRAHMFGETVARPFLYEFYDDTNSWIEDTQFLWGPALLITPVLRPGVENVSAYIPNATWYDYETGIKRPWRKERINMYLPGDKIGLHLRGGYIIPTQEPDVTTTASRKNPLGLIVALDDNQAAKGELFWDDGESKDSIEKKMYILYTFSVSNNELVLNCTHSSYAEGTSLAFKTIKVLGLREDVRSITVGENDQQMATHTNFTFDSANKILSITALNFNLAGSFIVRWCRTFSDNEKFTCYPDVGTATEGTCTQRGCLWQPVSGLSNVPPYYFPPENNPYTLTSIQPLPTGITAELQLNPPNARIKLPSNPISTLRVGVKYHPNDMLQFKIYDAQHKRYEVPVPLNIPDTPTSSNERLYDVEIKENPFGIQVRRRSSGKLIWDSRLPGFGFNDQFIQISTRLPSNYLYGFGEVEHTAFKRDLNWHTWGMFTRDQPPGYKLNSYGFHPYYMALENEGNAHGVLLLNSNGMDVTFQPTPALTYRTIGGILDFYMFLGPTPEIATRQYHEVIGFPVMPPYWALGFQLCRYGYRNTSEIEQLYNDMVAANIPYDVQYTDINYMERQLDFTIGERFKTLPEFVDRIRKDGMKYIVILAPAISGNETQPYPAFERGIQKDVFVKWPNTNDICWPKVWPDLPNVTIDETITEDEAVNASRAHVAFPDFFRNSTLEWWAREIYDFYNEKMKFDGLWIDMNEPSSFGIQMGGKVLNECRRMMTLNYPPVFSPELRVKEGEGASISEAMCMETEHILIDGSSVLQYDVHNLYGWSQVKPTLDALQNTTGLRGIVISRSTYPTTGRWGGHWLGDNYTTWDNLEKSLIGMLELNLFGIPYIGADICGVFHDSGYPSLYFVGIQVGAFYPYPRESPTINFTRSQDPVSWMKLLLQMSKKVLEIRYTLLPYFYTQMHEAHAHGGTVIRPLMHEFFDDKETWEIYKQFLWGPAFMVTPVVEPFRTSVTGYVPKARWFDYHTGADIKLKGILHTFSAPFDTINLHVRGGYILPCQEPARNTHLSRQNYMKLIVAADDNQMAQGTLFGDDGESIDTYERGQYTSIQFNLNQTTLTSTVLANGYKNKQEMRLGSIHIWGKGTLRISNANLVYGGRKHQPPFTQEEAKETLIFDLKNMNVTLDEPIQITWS

[4] = target: T3, Human lysosome α-galactosidase (Homo sapiens, UniProt P06280); test: In vitro enzyme inhibition; type: biochemical; conditions: concentration required to inhibit the enzyme to 50% activity; read-out: IC50
T3 sequence (P06280 32-429): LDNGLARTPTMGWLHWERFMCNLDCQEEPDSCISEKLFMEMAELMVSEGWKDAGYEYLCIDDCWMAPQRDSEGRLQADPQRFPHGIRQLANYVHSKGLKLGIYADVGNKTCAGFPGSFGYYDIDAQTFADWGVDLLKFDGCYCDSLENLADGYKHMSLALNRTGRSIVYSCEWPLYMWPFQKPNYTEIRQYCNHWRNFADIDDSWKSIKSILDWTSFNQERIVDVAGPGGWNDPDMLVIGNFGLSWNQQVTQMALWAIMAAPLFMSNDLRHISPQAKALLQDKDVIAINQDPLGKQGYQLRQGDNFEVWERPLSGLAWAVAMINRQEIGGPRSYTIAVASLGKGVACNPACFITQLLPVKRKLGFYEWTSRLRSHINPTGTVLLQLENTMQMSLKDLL

| Structure (SMILES) | MNTD (maximum non-toxic dose tested) [1] | IC50 [2] | IC50 [3] | IC50 [4] | concentration up to which cytotoxicity was not detected [1] |
| --- | --- | --- | --- | --- | --- |
| CCCC(=O)O[C@H]1CN2CC[C@H](O)[C@@H]2[C@@H](O)[C@@H]1O [Celgosivir, 6-O-butanoyl-castanospermine] | 100 µM | 158 µM | 29.3 µM | > 1000 µM | – |
| CCCCN1C[C@H](O)[C@@H](O)[C@H](O)[C@H]1CO [NB-DNJ, N-butyl-DNJ] | 100 µM | 5.2 µM | – | – | – |
| CCCCCCCCCN1C[C@H](O)[C@@H](O)[C@@H](O)[C@H]1CO [NN-DGJ] | 31.6 µM | > 1000 µM | > 1000 µM | 35.5 µM | – |
| CCCCN1C[C@H](O)[C@@H](O)[C@@H](O)[C@H]1CO [NB-DGJ] | 100 µM | > 1000 µM | > 1000 µM | – | > 100 µM |
